Values joined by “and” are separate entries in the source; they are usually repeats but may differ in a detail not shown here. Equal values may be shown once.
Assays:
[1] = tested on: mammals; conditions: Haglid et al., compared with nicotine; cited from earlier work
[2] = tested on: Aphids; assay: Aphid spray test on replicate ivy cuttings infested with Aphids; type: in vivo; conditions: for Avg. % Dead / % Dead / Insecticidal Effectiveness: aphids; for Avg. % Dead: average of 3 replicates; for Avg. % Dead / % Dead / No. of Aphids Alive / No. of Aphids Dead: 5 ml sprayed, 18 hours; for % Dead / No. of Aphids Alive / No. of Aphids Dead: per replicate (1, 2, 3); for Insecticidal Effectiveness: as compared to nicotine (100%); for No. of Aphids Alive / No. of Aphids Dead: 100 mg in 10 ml ethanol + 40 ml water with surfactant
Description: A 100 mg sample of the candidate compound was dissolved in 10 ml absolute ethanol. To the solution was added 40 ml tap water containing 0.5 ml of 1% surfactant. A 5 ml sample of each solution was sprayed on to replicate ivy cuttings infested with Aphids. The results, tabulated below in Table I were recorded 18 hours following the application of the sprays. […]
(§1) In the first column, the LD50 of the compounds in mice is a measure of their mammalian toxicity. The second column illustrates the effectiveness of the candidate compounds as insecticides as compared to nicotine, whereas the third column is the ratio of insecticidal effectiveness to mammalian toxicity.

[3] = Mammalian toxicity, LD50 in mice; type: in vivo, mouse; conditions: in vivo; mouse; measure of mammalian toxicity
Description: as §1

[4] = tested on: mouse; assay: Mammalian toxicity, LD50 in mice; type: in vivo; conditions: compared with nicotine
Description: as §1

[5] = tested on: female house flies; assay: Topical application to the notum of female house flies; type: in vivo; conditions: for insecticidal effectiveness in words: common houseflies, compared with nicotine; for Avg. % Dead / Percent Dead, Run 1 / Percent Dead, Run 2: house flies, 50 mg in 0.4 ml ethanol, 0.3 μl applied, 24 hours; for Avg. % Dead: average of Run 1 and Run 2
Description: A 50 mg sample of the candidate compound was dissolved on 0.4 ml absolute ethanol. A 0.3 μl sample of the solution was applied to the notum of female house flies which has been anesthetized with ether. Results were read twenty-four hours later.

| SMILES | nicotinic / pharmacological activity in words [1] | Avg. % Dead [2] | % Dead ([2]; 1080 min) | Insecticidal Effectiveness [2] | No. of Aphids Alive [2] | No. of Aphids Dead [2] | LD50 [3] | mammalian toxicity in words [4] | insecticidal effectiveness in words [5] | Avg. % Dead [5] | Percent Dead, Run 1 [5] | Percent Dead, Run 2 [5] | % Dead [2] |
| --- | --- | --- | --- | --- | --- | --- | --- | --- | --- | --- | --- | --- | --- |
| Cc1ccc(C2CCCN2C)cn1 (centres unmarked) [6-methylnicotine] | identical in pharmacological activity to nicotine itself |  |  |  |  |  |  |  |  |  |  |  |  |
| Cc1ccc(C2CCCN2C)c(C)n1 (centres unmarked) [2,6-dimethylnicotine, 2,6-Dimethyl-3-(1-methyl-2-pyrrolidinyl)pyridine] |  | 6% | 0% and 13% and 4% | 6% | 32 and 20 and 87 | 0 and 3 and 66 | 41 mg/kg |  |  |  |  |  |  |
| Cc1ncccc1C1CCCCN1 (centres unmarked) [2-methylanabasine, 2-Methyl-3-(2-piperidinyl)pyridine] |  | 52% | 62% and 50% and 43% | 52% | 24 and 27 and 87 | 39 and 27 and 66 | 15.7 mg/kg |  |  |  |  |  |  |
| Cc1ncccc1C1CCCN1C (centres unmarked) [2-methylnicotine, 2-Methyl-3-(1-methyl-2-pyrrolidinyl)pyridine] |  | 6% | 4% and 5% and 8% |  | 54 and 38 and 55 | 2 and 5 |  | lower mammalian toxicity than nicotine | as effective an insecticide as nicotine itself | 100% | 100% | 100% |  |
| CN1CCC[C@H]1c1cccnc1 [l-nicotine, reference compound] |  | 100% |  |  | 0 | 45 and 27 and 39 | 0.26 mg/kg |  |  | 100% | 100% | 100% | 100% |
| Cc1ccncc1C1CCCN1C (centres unmarked) [4-methylnicotine] | little or no nicotinic activity |  |  |  |  |  |  |  |  |  |  |  |  |
| Cc1ncccc1C1CCCN1 (centres unmarked) [2-methylnornicotine, 2-Methyl-3-(2-pyrrolidinyl)pyridine] |  | 3% | 2% and 7% and 0% | 3% | 39 and 27 and 30 | 2 and 0 | 100 mg/kg |  | only slightly less effective | 70% | 80% | 60% |  |

From patent publication US4155909A, “2-Alkyl nicotinoids and processes for their production” (priority 1977, dated 1979)
